The values that follow come from patent publication US5502035A, “N-terminus modified analogs of LHRH” (Tap Holdings Inc., priority 1994, dated 1996).

Non-standard residues stand in square brackets, D forms with d. Residues, ends and D or L forms follow the SMILES beside them. *: point of attachment. Shikimoyl = O=C(C1=C[C@@H](O)[C@@H](O)[C@H](O)C1)*; Tetrahydrofuroyl(2R) = O=C([C@H]1CCCO1)*; dPhe(4-Cl) = N[C@H](Cc1ccc(Cl)cc1)C(=O)O; d2Nal = N[C@H](Cc1ccc2ccccc2c1)C(=O)O; Acetyl(3-pyridyl) = O=C(Cc1cccnc1)*; Lys(iPr) = CC(C)NCCCC[C@H](N)C(=O)O; NMeY = CN[C@@H](Cc1ccc(O)cc1)C(=O)O; dCit = NC(=O)NCCC[C@@H](N)C(=O)O; hArg = N=C(N)NCCCC[C@H](N)C(=O)O; d3Pal = N[C@H](Cc1cccnc1)C(=O)O; Isonicotinoyl = O=C(c1ccncc1)*; Nicotinoyl = O=C(c1cccnc1)*; Picolinoyl = O=C(c1ccccn1)*; X2 = O=C1CC[C@@H](C(=O)*)O1; X8 = O=C1CC[C@H](C(=O)*)O1; 2Furoyl = O=C(c1ccco1)*; X1 = O=C([C@@H]1CCCO1)*

The test deals with T1, LHRH (Rattus norvegicus, UniProt P30969).
T1 construct: endogenous in cells; host or cells: rat pituitary cells (own knowledge of the cited Haviv 1989 method)
T1 sequence (P30969 1-327): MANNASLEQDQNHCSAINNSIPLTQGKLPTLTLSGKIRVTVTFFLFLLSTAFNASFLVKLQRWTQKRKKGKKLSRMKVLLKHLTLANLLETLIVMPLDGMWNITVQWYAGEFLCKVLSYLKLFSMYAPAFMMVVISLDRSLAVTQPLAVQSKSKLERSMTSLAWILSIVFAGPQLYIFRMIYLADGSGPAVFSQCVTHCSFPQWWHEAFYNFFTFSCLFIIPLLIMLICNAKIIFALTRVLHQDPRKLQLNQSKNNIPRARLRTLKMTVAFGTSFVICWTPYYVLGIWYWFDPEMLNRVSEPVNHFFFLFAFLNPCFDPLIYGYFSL
Kind of test: in vitro test for LHRH antagonist potency (pA2). The format is cell-based. Particulars: negative logarithm of the antagonist concentration required to shift the response curve produced by the agonist leuprolide to two-fold higher concentration. In outline:
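Rat LHRH receptor in vitro functional test; pA2 = negative log of the antagonist concentration shifting the leuprolide agonist response curve to two-fold higher concentration.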

The term Kb denotes the equilibrium dissociation constant of an antagonist, usually derived from a functional assay.

On to `CC(C)C[C@H](NC(=O)[C@@H](CCCCNC(=O)c1cccnc1)NC(=O)[C@H](CCCCNC(=O)c1cccnc1)NC(=O)[C@H](CO)NC(=O)[C@@H](Cc1cccnc1)NC(=O)[C@@H](Cc1ccc(Cl)cc1)NC(=O)[C@@H](Cc1ccc2ccccc2c1)NC(=O)c1cccnc1)C(=O)N[C@@H](CCCCNC(C)C)C(=O)N1CCC[C@H]1C(=O)N[C@H](C)C(N)=O` [Example 74, N-Nicotinyl-D2Nal-D4ClPhe-D3Pal-Ser-Lys(Nic)-DLys(Nic)-Leu-Lys(Isp)-Pro-DAlaNH2] (Nicotinoyl-[d2Nal][dPhe(4-Cl)][d3Pal]SK(Nicotinoyl)[dK](Nicotinoyl)L[Lys(iPr)]P[dA]-NH2), for which the Kb was 0.0562 nM.
In the case of `CC(C)C[C@H](NC(=O)[C@@H](CCCCNC(=O)c1cccnc1)NC(=O)[C@H](Cc1ccc(O)cc1)NC(=O)[C@H](CO)NC(=O)[C@@H](Cc1cccnc1)NC(=O)[C@@H](Cc1ccc(Cl)cc1)NC(=O)[C@@H](Cc1ccc2ccccc2c1)NC(=O)C1=C[C@@H](O)[C@@H](O)[C@H](O)C1)C(=O)N[C@@H](CCCCNC(C)C)C(=O)N1CCC[C@H]1C(=O)N[C@H](C)C(N)=O` [Example 75, N-Shikimyl-D2Nal-D4ClPhe-D3Pal-Ser-Tyr-DLys(Nic)-Leu-Lys(Isp)-Pro-DAlaNH2] (Shikimoyl-[d2Nal][dPhe(4-Cl)][d3Pal]SY[dK](Nicotinoyl)L[Lys(iPr)]P[dA]-NH2) it was 0.0112 nM.
Next, `CC(C)C[C@H](NC(=O)[C@@H](CCCNC(N)=O)NC(=O)[C@H](Cc1ccc(O)cc1)N(C)C(=O)[C@H](CO)NC(=O)[C@@H](Cc1cccnc1)NC(=O)[C@@H](Cc1ccc(Cl)cc1)NC(=O)[C@@H](Cc1ccc2ccccc2c1)NC(=O)[C@@H]1CCCO1)C(=O)N[C@@H](CCCNC(=N)N)C(=O)N1CCC[C@H]1C(=O)N[C@H](C)C(N)=O` [Example 76, N-(S)-Tetrahydofur-2-oyl-D2Nal-D4ClPhe-D3Pal-Ser-NMeTyr-DCit-Leu-Arg-Pro-DAlaNH2] (X1-[d2Nal][dPhe(4-Cl)][d3Pal]S[NMeY][dCit]LRP[dA]-NH2): 0.0355 nM; `CC(C)C[C@H](NC(=O)[C@@H](CCCNC(N)=O)NC(=O)[C@H](Cc1ccc(O)cc1)N(C)C(=O)[C@H](CO)NC(=O)[C@@H](Cc1cccnc1)NC(=O)[C@@H](Cc1ccc(Cl)cc1)NC(=O)[C@@H](Cc1ccc2ccccc2c1)NC(=O)[C@H]1CCCO1)C(=O)N[C@@H](CCCNC(=N)N)C(=O)N1CCC[C@H]1C(=O)N[C@H](C)C(N)=O` [Example 77, N-(R)-Tetrahydofur-2-oyl-D2Nal-D4ClPhe-D3Pal-Ser-NMeTyr-DCit-Leu-Arg-Pro-DAlaNH2] ({Tetrahydrofuroyl(2R)}-[d2Nal][dPhe(4-Cl)][d3Pal]S[NMeY][dCit]LRP[dA]-NH2): 0.0141 nM.
In the case of `CC(C)C[C@H](NC(=O)[C@@H](CCCNC(N)=O)NC(=O)[C@H](Cc1ccc(O)cc1)N(C)C(=O)[C@H](CO)NC(=O)[C@@H](Cc1cccnc1)NC(=O)[C@@H](Cc1ccc(Cl)cc1)NC(=O)[C@@H](Cc1ccc2ccccc2c1)NC(=O)[C@H]1CCC(=O)O1)C(=O)N[C@@H](CCCNC(=N)N)C(=O)N1CCC[C@H]1C(=O)N[C@H](C)C(N)=O` [Example 78a, N-(R)-5-Oxo-tetrahydrofur-2-oyl-D2Nal-D4ClPhe-D3Pal-Ser-NMeTyr-DCit-Leu-Arg-Pro-DAlaNH2] (X8-[d2Nal][dPhe(4-Cl)][d3Pal]S[NMeY][dCit]LRP[dA]-NH2), the Kb was 0.0105 nM.
Next, `CC(C)C[C@H](NC(=O)[C@@H](CCCNC(N)=O)NC(=O)[C@H](Cc1ccc(O)cc1)N(C)C(=O)[C@H](CO)NC(=O)[C@@H](Cc1cccnc1)NC(=O)[C@@H](Cc1ccc(Cl)cc1)NC(=O)[C@@H](Cc1ccc2ccccc2c1)NC(=O)[C@@H]1CCC(=O)O1)C(=O)N[C@@H](CCCNC(=N)N)C(=O)N1CCC[C@H]1C(=O)N[C@H](C)C(N)=O` [Example 78b, N-(S)-5-Oxo-tetrahydrofur-2-oyl-D2Nal-D4ClPhe-D3Pal-Ser-NMeTyr-DCit-Leu-Arg-Pro-DAlaNH2] (X2-[d2Nal][dPhe(4-Cl)][d3Pal]S[NMeY][dCit]LRP[dA]-NH2): 0.00832 nM; `CC(C)C[C@H](NC(=O)[C@@H](CCCNC(N)=O)NC(=O)[C@H](Cc1ccc(O)cc1)N(C)C(=O)[C@H](CO)NC(=O)[C@@H](Cc1cccnc1)NC(=O)[C@@H](Cc1ccc(Cl)cc1)NC(=O)[C@@H](Cc1ccc2ccccc2c1)NC(=O)C1=C[C@@H](O)[C@@H](O)[C@H](O)C1)C(=O)N[C@@H](CCCNC(=N)N)C(=O)N1CCC[C@H]1C(=O)N[C@H](C)C(N)=O` [Example 78c, N-Shikimyl-D2Nal-D4ClPhe-D3Pal-Ser-NMeTyr-DCit-Leu-Arg-Pro-DAlaNH2] (Shikimoyl-[d2Nal][dPhe(4-Cl)][d3Pal]S[NMeY][dCit]LRP[dA]-NH2): 0.0132 nM.
In the case of `CC(C)C[C@H](NC(=O)[C@@H](CCCNC(N)=O)NC(=O)[C@H](Cc1ccc(O)cc1)N(C)C(=O)[C@H](CO)NC(=O)[C@@H](Cc1cccnc1)NC(=O)[C@@H](Cc1ccc(Cl)cc1)NC(=O)[C@@H](Cc1ccc2ccccc2c1)NC(=O)c1ccco1)C(=O)N[C@@H](CCCNC(=N)N)C(=O)N1CCC[C@H]1C(=O)N[C@H](C)C(N)=O` [Example 78d, N-2-Furoyl-D2Nal-D4ClPhe-D3Pal-Ser-NMeTyr-DCit-Leu-Arg-Pro-DAlaNH2] (2Furoyl-[d2Nal][dPhe(4-Cl)][d3Pal]S[NMeY][dCit]LRP[dA]-NH2) it was 0.00794 nM; in that of `CC(C)C[C@H](NC(=O)[C@@H](CCCNC(N)=O)NC(=O)[C@H](Cc1ccc(O)cc1)N(C)C(=O)[C@H](CO)NC(=O)[C@@H](Cc1cccnc1)NC(=O)[C@@H](Cc1ccc(Cl)cc1)NC(=O)[C@@H](Cc1ccc2ccccc2c1)NC(=O)c1ccncc1)C(=O)N[C@@H](CCCNC(=N)N)C(=O)N1CCC[C@H]1C(=O)N[C@H](C)C(N)=O` [Example 78e, N-Isonicotinyl-D2Nal-D4ClPhe-D3Pal-Ser-NMeTyr-DCit-Leu-Arg-Pro-DAlaNH2] (Isonicotinoyl-[d2Nal][dPhe(4-Cl)][d3Pal]S[NMeY][dCit]LRP[dA]-NH2), 0.0162 nM; in that of `CC(C)C[C@H](NC(=O)[C@@H](CCCNC(N)=O)NC(=O)[C@H](Cc1ccc(O)cc1)N(C)C(=O)[C@H](CO)NC(=O)[C@@H](Cc1cccnc1)NC(=O)[C@@H](Cc1ccc(Cl)cc1)NC(=O)[C@@H](Cc1ccc2ccccc2c1)NC(=O)c1ccccn1)C(=O)N[C@@H](CCCNC(=N)N)C(=O)N1CCC[C@H]1C(=O)N[C@H](C)C(N)=O` [Example 78f, N-Picolinoyl-D2Nal-D4ClPhe-D3Pal-Ser-NMeTyr-DCit-Leu-Arg-Pro-DAlaNH2] (Picolinoyl-[d2Nal][dPhe(4-Cl)][d3Pal]S[NMeY][dCit]LRP[dA]-NH2), 0.0316 nM.
Consider `CC(C)C[C@H](NC(=O)[C@@H](CCCNC(N)=O)NC(=O)[C@H](Cc1ccc(O)cc1)N(C)C(=O)[C@H](CO)NC(=O)[C@@H](Cc1cccnc1)NC(=O)[C@@H](Cc1ccc(Cl)cc1)NC(=O)[C@@H](Cc1ccc2ccccc2c1)NC(=O)c1cccnc1)C(=O)N[C@@H](CCCNC(=N)N)C(=O)N1CCC[C@H]1C(=O)N[C@H](C)C(N)=O` [Example 78g, N-Nicotinyl-D2Nal-D4ClPhe-D3Pal-Ser-NMeTyr-DCit-Leu-Arg-Pro-DAlaNH2] (Nicotinoyl-[d2Nal][dPhe(4-Cl)][d3Pal]S[NMeY][dCit]LRP[dA]-NH2), for which the Kb is 0.00708 nM.
As for `CC(C)C[C@H](NC(=O)[C@@H](CCCNC(N)=O)NC(=O)[C@H](Cc1ccc(O)cc1)N(C)C(=O)[C@H](CO)NC(=O)[C@@H](Cc1cccnc1)NC(=O)[C@@H](Cc1ccc(Cl)cc1)NC(=O)[C@@H](Cc1ccc2ccccc2c1)NC(=O)Cc1cccnc1)C(=O)N[C@@H](CCCNC(=N)N)C(=O)N1CCC[C@H]1C(=O)N[C@H](C)C(N)=O` [Example 78h, N-(3-Pyridylacetyl)-D2Nal-D4ClPhe-D3Pal-Ser-NMeTyr-DCit-Leu-Arg-Pro-DAlaNH2] ({Acetyl(3-pyridyl)}-[d2Nal][dPhe(4-Cl)][d3Pal]S[NMeY][dCit]LRP[dA]-NH2), the Kb is 0.0316 nM.
In the case of `CC(C)C[C@H](NC(=O)[C@@H](CCCCNC(=O)C1=C[C@@H](O)[C@@H](O)[C@H](O)C1)NC(=O)[C@H](Cc1ccc(O)cc1)N(C)C(=O)[C@H](CO)NC(=O)[C@@H](Cc1cccnc1)NC(=O)[C@@H](Cc1ccc(Cl)cc1)NC(=O)[C@@H](Cc1ccc2ccccc2c1)NC(=O)C1=C[C@@H](O)[C@@H](O)[C@H](O)C1)C(=O)N[C@@H](CCCCNC(=N)N)C(=O)N1CCC[C@H]1C(=O)N[C@H](C)C(N)=O` [Example 79, N-Shikimyl-D2Nal-D4ClPhe-D3Pal-Ser-NMeTyr-DLys(Shik)-Leu-Harg-Pro-DAlaNH2] (Shikimoyl-[d2Nal][dPhe(4-Cl)][d3Pal]S[NMeY][dK](Shikimoyl)L[hArg]P[dA]-NH2) it was 0.0195 nM.
Turning to `CC(C)C[C@H](NC(=O)[C@@H](CCCCNC(=O)c1cccnc1)NC(=O)[C@H](Cc1ccc(O)cc1)N(C)C(=O)[C@H](CO)NC(=O)[C@@H](Cc1cccnc1)NC(=O)[C@@H](Cc1ccc(Cl)cc1)NC(=O)[C@@H](Cc1ccc2ccccc2c1)NC(=O)CNC(=O)[C@@H]1CCCO1)C(=O)N[C@@H](CCCCNC(C)C)C(=O)N1CCC[C@H]1C(=O)N[C@@H](C)C(N)=O` [Example 80, N-(S)-2-Tetrahydrofuroyl-Gly-D2Nal-D4ClPhe-D3Pal-Ser-NMeTyr-DLys(N-epsilon- Nicotinyl) -Leu-Lys(N-epsilon-Isopropyl)-Pro-AlaH2], the Kb is 0.0126 nM.
In the case of `CC(C)C[C@H](NC(=O)[C@@H](CCCCNC(=O)c1cccnc1)NC(=O)[C@H](Cc1ccc(O)cc1)N(C)C(=O)[C@H](CO)NC(=O)[C@@H](Cc1cccnc1)NC(=O)[C@@H](Cc1ccc(Cl)cc1)NC(=O)[C@H](Cc1ccc2ccccc2c1)NC(=O)CNC(=O)[C@@H]1CCCO1)C(=O)N[C@@H](CCCCNC(C)C)C(=O)N1CCC[C@H]1C(=O)N[C@H](C)C(N)=O` [Example 81, (S)-2-Tetrahydrofuroyl-Gly-2Nal-D4ClPhe-D3Pal-Ser-NMeTyr-DLys(N-epsilon-Nicotinyl) -Leu-Lys(N-epsilon-Isopropyl)-Pro-DAlaNH2] it was 0.891 nM.
